Assay results published in EP0194571A1, “Heterocyclic disulfides, process for their preparation and pharmaceutical preparations containing them” (HOECHST AKTIENGESELLSCHAFT, priority 1985, dated 1986).

Columns and labels:
[1] = tested on: Maus-Peritonealmakrophagen; assay: Activation of mononuclear phagocytes: release of lysosomal hydrolases (exocytosis) by peritoneal macrophages from treated mice; format: in vivo, NMRI-Mäuse; details: for N-Ac-Glu: N-Acetyl-ß-D-Glucosaminidase in culture supernatant; for ß-Gal: ß-Galactosidase in culture supernatant; for ß-Glu: ß-Glucuronidase in culture supernatant
Procedure: (§1) Hier wurde der Einfluß der nach Ausführungsbeispiel 8 erhaltenen Prüfsubstanz auf die Stimulation von Peritonealmakrophagen bei 6- 8 Wochen alten NMRI-Mäusen untersucht. Mäuseweibchen erhielten auf parenteralem oder oralem Wege die Prüfsubstanz in einer Dosis von 25 mg/kg, 50 mg/kg, 100 mg/kg und 200 mg/kg. Der Kontrollgruppe wurde gepufferte Kochsalzlösung verabreicht. Drei Tage nach den Injektionen wurden die Mäuse getötet, und es wurden die Peritonealmakrophagen der Tiere auf ihren Aktivierungszustand hin untersucht. Als Maß der Makrophagenaktivierung wurde zum einen die Sekretion der lyosomalen Enzyme (ß-Galactosidase, ß-Glucuronidase, N-Acetyl-ß-D-Glucosaminidase) bestimmt. Auf der anderen Seite konnte in vergleichbaren Makrophagenkulturen die Pinozytose durch die Aufnahme von kolloidalem Gold (^19^8Au) - wie sie dem Fachmann bekannt ist - untersucht werden. Die Höhe des oxidativen Stoffwechsels bei Makrophagen gilt als ein weiteres Maß für ihren Aktivierungszustand. Gemessen wird diese Aktivität unter Zuhilfenahme des Biolumaten durch Bestimmung der Chemolumineszenz.
(§2) Zu diesem Zweck wurden entweder in Petrischalen von 30 mm Durchmesser 3 x 10^6 Makrophagen mit 1 ml TC 199-Kulturmedium oder aber 10^6 Makrophagen mit 100 µl in Rundbogen-Polyäthylen-Röhrchen (zur Bestimmung der Chemolumineszenz) bei 5 % G02 und 37°C kultiviert.
(§3) Nach einstündiger Bebrütung wurden die Kulturen gewaschen, um schwimmende Zellen zu entfernen. Die Chemolumineszenz (Röhrchenkultur) wurde dann direkt bestimmt, während die Petrischalen erneut 24 Stunden bei 37°C bebrütet wurden und danach die Enzym- und Pinozytoseaktivität in den Kulturen bestimmt wurde. Es wurden die nachstehenden Ergebnisse erzielt.
Aus der Tabelle 3 ist zu entnehmen, daß Makrophagen von Kontrollmäusen nur geringe Mengen an lysosomalen Enzymen (ß-Glucuronidase, ß-Galactosidase, N-Acetyl-ß-D-Glucosaminidase) in den Kulturüberstand abgeben. Mononukleare Phagozyten von Mäusen, die parenteral oder oral mit der Prüfsubstanz 72 Stunden behandelt wurde, sezernieren die o.a. sauren Hydrolasen (ß-Glu, ß-Gal, N-Ac-Glu) deutlich mehr und weisen damit eine Dosiswirkungskurve auf, die bei allen gemessenen Enzymen eine Überlegenheit gegenüber den Kontrollen erkennen läßt. Es ist ersichtlich, daß die Prüfsubstanz eine stimulierende Wirkung auf die Makrophagenaktivität besitzt und zur Erhöhung der Enzymfreisetzung beiträgt.
(§4) Wie im Experiment 2 beschrieben, wurden NMRI-Mäuse mit den erfindungsgemäßen Verbindungen behandelt.
(§5) Als Test zur Erfassung der Immunstimulation wurde die Funktion der Makrophagen (Chemolumineszenz und Enzymaktivität) überprüft.
(§6) Tabelle 8 zeigt die relative Wirksamkeit der Prüfsubstanzen bezogen auf die Verbindung aus Beispiel 8, deren maximale Aktivierung (Differenz zwischen Kontrolle und Stimulation) 100 % entspricht. Der Tabelle ist zu entnehmen, daß im Vergleich zu Makrophagen aus unbehandelten Tieren, diese Zellen auch durch alle Prüfsubstanzen in ihrer Chemolumineszenzreaktion stark stimuliert und in ihrem Gehalt an lysosomalen Enzymen deutlich erhöht waren.

[2] = tested on: Maus-Peritonealmakrophagen; assay: Activation of mononuclear phagocytes: oxidative metabolism (chemiluminescence) of peritoneal macrophages from treated mice; format: in vivo, NMRI-Mäuse; details: relative to maximal activation by compound of Beispiel 8 = 100 %; 100 mg/kg i.p.
Procedure: as §1, §2, §3
Die parenterale sowie die orale Behandlung von NMRI-Mäusen mit der gemäß Beispiel 8 hergestellten Prüfsubstanz stimuliert die Makrophagenaktivität und hat damit eine immunitätstimulierende Wirkung. So wird der oxidative Stoffwechsel bei Makrophagen mit der Generierung von Sauerstoffradikalen und dem damit verbundenen meßbaren Licht deutlich erhöht. Bei Dosierungen von 25 mg/kg aufwärts kommt es zu einer dosisabhänigen Steigerung der Makrophagenaktivität sowohl bei parenteraler als auch oraler Applikation.
as §4, §5, §6

For `Cc1nc(SSc2nc(C)c(CC(=O)O)s2)sc1CC(=O)O` [Beispiel 8, Bis-(5-Carboxymethyl-4-methyl-thiazol-2-yl)-disulfid], the N-Ac-Glu ([1]; 1 x 25 mg/kg i.p.) was 2786 mU/ml, the N-Ac-Glu ([1]; 1 x 25 mg/kg p.o.) was 1947 mU/ml and the N-Ac-Glu ([1]; 1 x 50 mg/kg i.p.) was 3315 mU/ml. For the same compound, the N-Ac-Glu ([1]; 1 x 50 mg/kg p.o.) was 2862 mU/ml, the N-Ac-Glu ([1]; 1 x 100 mg/kg i.p.) was 4305 mU/ml and the N-Ac-Glu ([1]; 1 x 100 mg/kg p.o.) was 3676 mU/ml. For the same compound, the N-Ac-Glu ([1]; 1 x 200 mg/kg i.p.) was 6548 mU/ml, the N-Ac-Glu ([1]; 1 x 200 mg/kg p.o.) was 5621 mU/ml and the “Makrophagenaktivität Exozytose” value ([1]; lysosomal enzyme activity, relative to maximal activation by compound of Beispiel 8 = 100 %, 100 mg/kg i.p.) was 100%. For the same compound, the ß-Gal ([1]; 1 x 25 mg/kg i.p.) was 2584 mU/ml, the ß-Gal ([1]; 1 x 25 mg/kg p.o.) was 4917 mU/ml and the ß-Gal ([1]; 1 x 50 mg/kg i.p.) was 11058 mU/ml. It also gave a ß-Gal ([1]; 1 x 50 mg/kg p.o.) of 9179 mU/ml, a ß-Gal ([1]; 1 x 100 mg/kg i.p.) of 17596 mU/ml and a ß-Gal ([1]; 1 x 100 mg/kg p.o.) of 13195 mU/ml. It also gave a ß-Gal ([1]; 1 x 200 mg/kg i.p.) of 22351 mU/ml, a ß-Gal ([1]; 1 x 200 mg/kg p.o.) of 17357 mU/ml and a ß-Glu ([1]; 1 x 25 mg/kg i.p.) of 1001 mU/ml. The ß-Glu ([1]; 1 x 25 mg/kg p.o.) was 897 mU/ml, the ß-Glu ([1]; 1 x 50 mg/kg i.p.) was 1370 mU/ml and the ß-Glu ([1]; 1 x 50 mg/kg p.o.) was 1133 mU/ml. The ß-Glu ([1]; 1 x 100 mg/kg i.p.) was 1791 mU/ml, the ß-Glu ([1]; 1 x 100 mg/kg p.o.) was 1593 mU/ml and the ß-Glu ([1]; 1 x 200 mg/kg i.p.) was 2136 mU/ml. The ß-Glu ([1]; 1 x 200 mg/kg p.o.) was 1886 mU/ml and the “Makrophagenaktivität Chemolumineszenz” value [2] was 100%.
